Laboratory results published in ChEMBL document CHEMBL1138383, “2-Arylidenedihydroindole-3-ones: design, synthesis, and biological activity on bladder carcinoma cell lines” (2007).

Columns and labels:
J82 [1] = experiment: Effect on viability of J82 cells with FGFR3 K650E mutation at 10 uM after 72 hrs; format: functional, Homo sapiens
[2] = Effect on viability of DAG1 cells with FGFR3 S249C mutation at 10 uM after 72 hrs; format: functional, Homo sapiens
RT-112 [3] = experiment: Effect on viability of RT112 cells overexpressing wild-type FGFR3 at 10 uM after 72 hrs; format: functional, Homo sapiens
RT-112 [4] = experiment: Decrease in p-Stat5 antigen expression level in RT112 cells overexpressing wild-type FGFR3 at 10 uM after 6 hrs by flow cytometry relative to control; format: functional, Homo sapiens
RT-112 [5] = experiment: Decrease in p-Pyk2 antigen expression level in RT112 cells overexpressing wild-type FGFR3 at 10 uM after 6 hrs by flow cytometry relative to control; format: functional, Homo sapiens
[6] = Decrease in p-Pyk2 antigen expression level in DAG1 cells with FGFR3 S249C mutation at 10 uM after 6 hrs by flow cytometry relative to control; format: functional, cell-based; conditions: Homo sapiens
J82 [7] = experiment: Induction of apoptosis in J82 cells with FGFR3 K650E mutation at 10 uM after 48 hrs by flow cytometry; format: functional, Homo sapiens
[8] = Induction of apoptosis in DAG1 cells with FGFR3 S249C mutation at 10 uM after 48 hrs by flow cytometry; format: functional, Homo sapiens
RT-112 [9] = experiment: Induction of apoptosis in RT112 cells overexpressing wild-type FGFR3 at 10 uM after 48 hrs by flow cytometry; format: functional, Homo sapiens
[10] = Decrease in p-Stat5 antigen expression level in DAG1 cells with FGFR3 S249C mutation at 10 uM after 6 hrs by flow cytometry relative to control; format: functional, cell-based; conditions: Homo sapiens

SMILES | Activity (J82 [1]) [%] | Activity [2] [%] | Activity (RT-112 [3]) [%] | Activity (RT-112 [4]) | Activity (RT-112 [5]) | Activity [6] | Activity (J82 [7]) [%] | Activity [8] [%] | Activity (RT-112 [9]) [%] | Activity [10]
COc1cc2c(c(OC)c1)C(=O)/C(=C/c1ncc[nH]1)N2 | 89 | 90 | 92 |  |  |  |  |  |  | 
COc1cc2c(c(OC)c1)C(=O)/C(=C/c1ccccc1F)N2 | 97 | 58 | 48 | 2.5 | 1.3 | 2 | 3 | 86 | 20 | 9.5
COc1cc2c(c(OC)c1)C(=O)/C(=C/c1ccc(Cl)cc1)N2 | 94 | 99 | 93 |  |  |  |  |  |  | 
COc1cc2c(c(OC)c1)C(=O)/C(=C/c1[nH]cnc1C)N2 | 90 | 89 | 92 |  |  |  |  |  |  | 
COc1cc2c(c(OC)c1)C(=O)/C(=C/c1c(F)cccc1Cl)N2 | 95 | 91 | 93 |  |  |  |  |  |  | 
CCc1ccc(/C=C2\Nc3cc(OC)cc(OC)c3C2=O)cc1 | 99 | 98 | 97 |  |  |  |  |  |  | 
